Assays:
human NPY Y5 receptor [1] = target: T1, human NPY Y5 receptor (Homo sapiens, UniProt Q15761); experiment: Affinity for NPY Y5 receptor ([125I] peptide YY binding, CHO cell membranes); conditions: inhibition of specific [125I] peptide YY binding, membranes of CHO cells expressing NPY Y5 receptor
T1 construct: expressed in transfected cells
T1 sequence (Q15761 1-445): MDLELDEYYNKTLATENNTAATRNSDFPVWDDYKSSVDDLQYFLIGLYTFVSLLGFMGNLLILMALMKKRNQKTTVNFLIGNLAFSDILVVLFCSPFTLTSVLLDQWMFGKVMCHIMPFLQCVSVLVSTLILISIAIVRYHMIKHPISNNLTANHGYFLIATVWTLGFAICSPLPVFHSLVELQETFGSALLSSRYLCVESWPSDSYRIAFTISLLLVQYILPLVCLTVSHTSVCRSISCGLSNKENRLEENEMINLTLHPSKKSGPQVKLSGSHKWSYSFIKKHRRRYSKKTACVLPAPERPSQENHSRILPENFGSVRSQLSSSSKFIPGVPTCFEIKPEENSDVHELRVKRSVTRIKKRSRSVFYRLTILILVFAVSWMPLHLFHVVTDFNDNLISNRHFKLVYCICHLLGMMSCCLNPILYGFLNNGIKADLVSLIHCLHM
How it was run: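 IC50 is inhibition of specific [125I] peptide YY binding (60 pM final; non-specific defined by 200 nM peptide YY), read by gamma counting after filtration. Binding used stably transfected CHO-cell membranes with compound, 2 hours at 25° C, pH 7.4 HEPES-Hanks/0.1% BSA.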

human NPY Y5 receptor [2] = target: T1, human NPY Y5 receptor; experiment: cAMP production inhibitory activity in CHO cells; format: cell-based; conditions: against 50 nM NPY inhibition of forskolin stimulated cAMP, CHO cells expressing human NPY Y5 receptor
How it was run: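 Supernatant cAMP quantified by EIA after HCl stop, following 30 min stimulation with 10 μM forskolin and 50 nM NPY. Compound was added 5 min before stimulation to human NPY Y5-expressing CHO cells pretreated 20 min at 37 °C with 2.5 mM isobutylmethylxanthine.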

Row | IC50 (human NPY Y5 receptor [1]) | IC50 (human NPY Y5 receptor [2]) | SMILES
1 | 9.5 nM | 180 nM | CC(C)(C)S(=O)(=O)NC1CCN(C(=O)Nc2ccc3oc(=O)ccc3c2)CC1 [Ia-68]
2 | 1.5 nM | 31 nM | CC(C)(C)S(=O)(=O)NC1CCN(C(=O)Nc2cnc(-c3ccccc3)cn2)CC1 [Ia-70]
3 | 1.3 nM | 12 nM | CC(C)(C)S(=O)(=O)N[C@H]1CC[C@H](C(=O)Nc2ccc(-c3nnnn3-c3ccccc3)cc2)CC1 [Ia-71]
4 | 2.7 nM | 4.5 nM | CC(C)(C)S(=O)(=O)NCCCCC(=O)Nc1ccc2c(c1)C(=O)N(c1ccccc1)C2=O [Ia-81]
5 | 1.2 nM | 53 nM | C[C@@H]1CN(c2ccc(NC(=O)CCCCNS(=O)(=O)C(C)(C)C)c(F)c2)C[C@H](C)O1 [Ia-83]
6 | 0.62 nM | 48 nM | CC(C)S(=O)(=O)NC1CCC(C(=O)Nc2ccc3c(c2)OCO3)CC1 (stereo not drawn) [Ia-88]
7 | 4 nM | 150 nM | CN1C(=O)c2ccc(NC(=O)CCCCNS(=O)(=O)C(C)(C)C)cc2C1=O [Ia-91]
8 | 1.9 nM | 24 nM | CC(C)(C)S(=O)(=O)NC1CCC(C(=O)Nc2ccc3scnc3c2)CC1 (stereo not drawn) [Ia-106]
9 | 0.14 nM | 1.3 nM | CC(C)(C)S(=O)(=O)NC1CCC(C(=O)Nc2ccc(-c3ccccc3)cc2)CC1 (stereo not drawn) [Ia-107]
10 | 0.6 nM | 3.9 nM | CC(C)(C)S(=O)(=O)NC1CCC(C(=O)Nc2cccc3c2Cc2ccccc2-3)CC1 (stereo not drawn) [Ia-109]
11 | 0.3 nM | 1.1 nM | CC(C)(C)S(=O)(=O)NC1CCC(C(=O)Nc2ccc(N3CC=CC3)cc2)CC1 (stereo not drawn) [Ia-110]
12 | 6.1 nM | 160 nM | CC(C)(C)S(=O)(=O)Nc1ccc(C(=O)Nc2ccc3c(c2)OCCO3)cc1 [Ia-127]
13 | 1.3 nM | 26 nM | CC(C)(C)S(=O)(=O)NC1CCC(C(=O)Nc2cccc(C(F)(F)F)c2)CC1 (stereo not drawn) [Ia-129]
14 | 1.3 nM | 17 nM | CC(C)(C)S(=O)(=O)Nc1ccc(C(=O)Nc2ccc3ccsc3c2)cc1 [Ia-131]
15 | 1.7 nM | 8.8 nM | CC(C)(C)S(=O)(=O)Nc1ccc(C(=O)Nc2ccc3sccc3c2)cc1 [Ia-133]
16 | 1.6 nM | 13 nM | CC(C)(C)S(=O)(=O)NC1CCC(C(=O)Nc2cc(F)cc(F)c2)CC1 (stereo not drawn) [Ia-136]
17 | 0.76 nM | 140 nM | CC(C)(C)S(=O)(=O)NC1CCC(C(=O)Nc2ccc(F)c(C(F)(F)F)c2)CC1 (stereo not drawn) [Ia-160]
18 | 1.9 nM | 18 nM | Cc1ccc(NC(=O)C2CCC(NS(=O)(=O)C(C)(C)C)CC2)cc1F (stereo not drawn) [Ia-161]
19 | 0.49 nM | 9.2 nM | CC(C)(C)S(=O)(=O)NC1CCC(C(=O)Nc2ccc(OC3CCCCC3)cc2)CC1 (stereo not drawn) [Ia-175]
20 | 0.63 nM | 5.1 nM | CC(C)(C)S(=O)(=O)NC1CCC(C(=O)Nc2cccc(OC3CCCCC3)c2)CC1 (stereo not drawn) [Ia-176]
21 | 1.9 nM | 11 nM | CC(C)NS(=O)(=O)c1ccc(NC(=O)C2CCC(NS(=O)(=O)C(C)(C)C)CC2)cc1 (stereo not drawn) [Ia-180]
22 | 7.7 nM | 25 nM | CC(C)NS(=O)(=O)c1cccc(NC(=O)C2CCC(NS(=O)(=O)C(C)(C)C)CC2)c1 (stereo not drawn) [Ia-181]
23 | 0.24 nM | 2.1 nM | CC(C)(C)S(=O)(=O)NC1CCC(C(=O)Nc2cccc(OCC3CC3)c2)CC1 (stereo not drawn) [Ia-182]
24 | 1.9 nM | 7.8 nM | CC(C)(C)S(=O)(=O)NC1CCC(C(=O)Nc2ccc(N3CCCC3=O)cc2)CC1 (stereo not drawn) [Ia-183]
25 | 0.94 nM | 4.4 nM | CC(C)(C)S(=O)(=O)NC1CCC(C(=O)Nc2ccc(S(=O)(=O)N3CCCCC3)cc2)CC1 (stereo not drawn) [Ia-185]

More lines, now with the values behind:

Row | SMILES | IC50 (human NPY Y5 receptor [1]) | IC50 (human NPY Y5 receptor [2])
26 | CC(C)(C)S(=O)(=O)NC1CCC(C(=O)Nc2ccc(N3CCC(O)(c4ccc(Cl)cc4)CC3)cc2)CC1 (stereo not drawn) [Ia-65] | 1.1 nM | 11 nM
27 | CC(C)(C)S(=O)(=O)NC1CCC(C(=O)Nc2nnc(-c3ccccc3)s2)CC1 (stereo not drawn) [Ia-66] | 0.59 nM | 3.2 nM
28 | Cn1nnnc1-c1ccc(NC(=O)[C@H]2CC[C@H](NS(=O)(=O)C(C)(C)C)CC2)cc1 [Ia-69] | 2.7 nM | 33 nM
29 | CC(C)(C)S(=O)(=O)NCCCCC(=O)Nc1ccc2oc(=O)ccc2c1 [Ia-78] | 2 nM | 150 nM
30 | CC(C)S(=O)(=O)N[C@H]1CC[C@H](C(=O)Nc2ccc3c(c2)C(=O)N(c2ccccc2)C3=O)CC1 [Ia-80] | 0.44 nM | 3 nM
31 | CC(C)S(=O)(=O)NC1CCC(C(=O)Nc2ccc(N3CCC(O)(c4ccc(Cl)cc4)CC3)cc2)CC1 (stereo not drawn) [Ia-84] | 0.25 nM | 13 nM
32 | CC(C)(C)S(=O)(=O)NCCCCC(=O)Nc1ccc(N2CCC(O)(c3ccc(Cl)cc3)CC2)cc1 [Ia-85] | 0.22 nM | 14 nM
33 | CC(C)S(=O)(=O)NCCCCC(=O)Nc1ccc(N2CCC(O)(c3ccc(Cl)cc3)CC2)cc1 [Ia-86] | 0.73 nM | 11 nM
34 | CC(C)S(=O)(=O)NC1CCC(C(=O)Nc2ccc3c(c2)C(=O)N(C)C3=O)CC1 (stereo not drawn) [Ia-87] | 0.49 nM | 61 nM
35 | CC(C)(C)S(=O)(=O)NC1CCC(C(=O)Nc2cccc3c2CCCC3)CC1 (stereo not drawn) [Ia-111] | 5.1 nM | 28 nM
36 | CC(C)(C)S(=O)(=O)Nc1ccc(C(=O)Nc2ccc3c(c2)CCC3)cc1 [Ia-125] | 4.1 nM | 46 nM
37 | CC(C)(C)S(=O)(=O)NC1CCC(C(=O)Nc2ccc3ccsc3c2)CC1 (stereo not drawn) [Ia-130] | 0.21 nM | 3 nM
38 | CC(C)NC(=O)c1cccc(NC(=O)c2ccc(NS(=O)(=O)C(C)(C)C)cc2)c1 [Ia-132] | 2.8 nM | 76 nM
39 | CC(C)(C)S(=O)(=O)NC1CCC(C(=O)Nc2ccc(F)cc2F)CC1 (stereo not drawn) [Ia-135] | 8.2 nM | 49 nM
40 | CC(C)(C)S(=O)(=O)NC1CCC(C(=O)Nc2ccc(F)c(F)c2)CC1 (stereo not drawn) [Ia-138] | 2.2 nM | 28 nM
41 | CC(C)S(=O)(=O)NC1CCC(C(=O)Nc2ccc3c(c2)CCC3)CC1 (stereo not drawn) [Ia-141] | 1 nM | 5.7 nM
42 | CC(C)(C)S(=O)(=O)Nc1ccc(C(=O)Nc2ccc(-c3ccccc3)cc2)cc1 [Ia-158] | 0.71 nM | 1.7 nM
43 | CC(C)S(=O)(=O)Nc1ccc(C(=O)Nc2ccc3c(c2)CCC3)cc1 [Ia-163] | 7 nM | 400 nM
44 | CC(C)(C)S(=O)(=O)NC1CCC(C(=O)Nc2ccc(OC3CCCC3)cc2)CC1 (stereo not drawn) [Ia-164] | 0.38 nM | 4.7 nM
45 | CC(C)(C)S(=O)(=O)NC1CCC(C(=O)Nc2cccc(S(=O)(=O)NC3CCCCC3)c2)CC1 (stereo not drawn) [Ia-168] | 0.95 nM | 13 nM
46 | CC(C)(C)S(=O)(=O)NC1CCC(C(=O)Nc2ccc(S(=O)(=O)NC3CCCCC3)cc2)CC1 (stereo not drawn) [Ia-169] | 1.9 nM | 88 nM
47 | CC(C)(C)S(=O)(=O)NC1CCC(C(=O)Nc2ccc(N3CCCCC3=O)cc2)CC1 (stereo not drawn) [Ia-173] | 6.9 nM | 140 nM
48 | CC(C)(C)S(=O)(=O)NC1CCC(C(=O)Nc2ccc(OCC3CC3)cc2)CC1 (stereo not drawn) [Ia-174] | 0.35 nM | 5.4 nM
49 | CC(C)(C)S(=O)(=O)NC1CCC(C(=O)Nc2ccc(-c3ccco3)cc2)CC1 (stereo not drawn) [Ia-177] | 0.49 nM | 7.5 nM
50 | CC(C)(C)S(=O)(=O)NC1CCC(C(=O)Nc2ccc(-c3ccno3)cc2)CC1 (stereo not drawn) [Ia-179] | 0.89 nM | 19 nM
51 | CC(C)(C)S(=O)(=O)NC1CCC(C(=O)Nc2cccc(S(=O)(=O)N3CCCCC3)c2)CC1 (stereo not drawn) [Ia-186] | 0.93 nM | 12 nM
